# Assay results reported in US20230331655A1, “HYDROXYN[…] AND METHODS OF USE THEREOF” (UNIVERSITY OF MARYLAND, BALTIMORE, priority 2020, published 2023).
# Entries after “also recorded” stand apart in the source; their conditions may differ.
# How the values were obtained:
# Format in all cases: in vivo, mouse
# Male C57BL/6J mice [1] = assay: sub-effective dose morphine conditioned-place preference after chronic social defeat stress; details: single 10 mg/kg i.p. before conditioning, morphine 0.25 mg/kg
# Description: (§1) Animals: Male C57BL/6J mice (8 weeks old, Jackson laboratories) were kept in a temperature and humidity-controlled environment and maintained in a 12:12 hr light/dark cycle (lights on at 7:00 AM). Mice were singly-housed for all the studies due to increased aggression following opioid administration and were randomly assigned to treatment groups.
# (§2) Drugs: (2R,6R)-HNK hydrochloride was synthesized and characterized. Absolute and relative stereochemistry for (2R,6R)-HNK was confirmed by small molecule x-ray crystallography. For the intraperitoneal injections, drugs were dissolved in 0.9% saline and given in a volume of 5 ml/kg.
# Social defeats: Socially defeated mice underwent a 10-day chronic social defeat stress paradigm. […]
# Social interaction test: Following the social defeats, on day 11, test mice were screened for susceptibility in a social interaction/avoidance choice test. […] The time spent interacting (nose within close proximity of the cage) with the “stranger” mouse versus the empty cage was analyzed using TopScan video tracking software (CleverSys, Reston, Virginia). […]
# Sucrose preference: Following the social interaction test, mice were assessed for sucrose preference in their home cages. […] Sucrose preference was measured (day 12) and were assigned to two groups: resilient (sucrose preference >70%) and susceptible (sucrose preference <55%). […]
# Male C57BL/6J mice [2] = assay: naloxone-precipitated morphine withdrawal conditioned-place aversion; details: 10 mg/kg i.p. 10 min before naloxone 1 mg/kg; morphine 10 mg/kg
# Description: as §1, §2
# Precipitated morphine place aversion: The conditioned-place aversion (CPA) protocol was performed in a rectangular three-chambered box (40 cm length×30 cm width×35 cm height; Stoelting Co., Wood Dale, IL, USA) comprised of two equal sized end-chambers (20 cm×18 cm×35 cm) and a central chamber (20 cm×10 cm×35 cm). […] The CPA protocol consisted of a pre-conditioning phase, four saline/morphine administration days in their home cages, a conditioning phase following morphine precipitated withdrawal in the CPA apparatus and a post-conditioning test. […] Time spent in each compartment was measured during both pre- and post-conditioning sessions using TopScan v2.0 (CleverSys, Inc, VA, USA).
# Male C57BL/6J mice [3] = assay: high-dose morphine conditioned-place preference in stress-naive mice; details: single 10 mg/kg i.p., morphine 5 mg/kg
# Description: as §1, §2
# Morphine conditioned-place preference: The conditioned-place preference (CPP) apparatus consisted of a rectangular three-chambered box (40 cm length×30 cm width×35 cm height; Stoelting Co., Wood Dale, IL, USA) comprised of two equal sized end-chambers (20 cm×18 cm×35 cm) and a central chamber (20 cm×10 cm×35 cm). […] The CPP protocol consisted of a pre-conditioning phase, eight conditioning sessions and a post-conditioning test. […]
# Conditioning phase (Days 3-6): During the morning sessions of the conditioning phase, saline was administered and mice were placed in their non-opioid assigned compartment for 40 min. […] Time spent in each compartment was measured during both pre- and post-conditioning sessions using TopScan v2.0 (CleverSys, Inc, VA, USA).
structure (smiles),measurement,setting,value
"N[C@@]1(c2ccccc2Cl)CCC[C@@H](O)C1=O [(2R,6R)-HNK, (2R,6R)-hydroxynorketamine]",morphine-induced place preference (conditioning to sub-effective dose of morphine),Male C57BL/6J mice [1]; stress susceptible mice,prevents conditioning; also recorded: prevented morphine-induced place preference
same,morphine-induced place preference (conditioning to sub-effective dose of morphine),Male C57BL/6J mice [1]; stress-resilient mice,no significant effect
same,naloxone-induced conditioned-place aversion in morphine-dependent mice,Male C57BL/6J mice [2],prevents conditioned-place aversion; also recorded: completely prevented
same,development of high-dose morphine CPP,Male C57BL/6J mice [3],did not prevent
